Earlier results as cited in patent US20020045179A1, “Toxicity typing using mesenchymal stem cells” (priority 2000, published 2002).
Read-outs that look alike come from different tables or passages of the source.

Columns and labels:
[1] = for liver toxicity (in words): predetermined toxicity stated in text of Example 2
[2] = in vivo
[3] = in vivo; remark: listed apart in the source
[4] = in vivo; remark: listed apart in the source
[5] = Table 1, predetermined toxicity by tissue/organ

CC(=O)Nc1ccc(O)cc1 [acetominophen]
TOXICITIES LIVER ([1]; in vivo): +

CCOC(=O)C(C)(C)Oc1ccc(Cl)cc1 [clofibrate]
TOXICITIES LIVER [1, 5]: ntc

CN(CCOc1ccc(CC2SC(=O)NC2=O)cc1)c1ccccn1 (stereo not drawn) [rosiglitazone]
TOXICITIES LIVER [1, 5]: ntc

N=C(N)NCCCCCCC(=O)NC(O)C(=O)NCCCCNCCCN (stereo not drawn) [deoxyspergualin]
TOXICITIES CV [2]: +

COc1nc(C(Cl)(Cl)Cl)c(Cl)c(OC)c1Cl [penclomedine]
TOXICITIES CNS [3]: +

CCC(=O)O[C@H]1[C@H](O[C@@H]2[C@@H](C)[C@H](O[C@H]3C[C@@](C)(OC)[C@@H](O)[C@H](C)O3)[C@@H](C)C(=O)O[C@H](CC)[C@@](C)(O)[C@H](O)[C@@H](C)C(=O)[C@H](C)C[C@@]2(C)O)O[C@H](C)C[C@@H]1N(C)C [erythromycin estolate]
liver toxicity (in words) [1]: known liver toxicity

Cc1c(C)c2c(c(C)c1O)CCC(C)(COc1ccc(CC3SC(=O)NC3=O)cc1)O2 (stereo not drawn) [troglitazone]
liver toxicity (in words) [1]: rare but severe liver toxicity

N.N.O=C([O-])C1(C(=O)[O-])CCC1.[Pt+2] [carboplatin]
TOXICITIES GI [4]: +

c1ccc2c(c1)cc1ccc3cccc4ccc2c1c34 [benzo(a)pyrene]
TOXICITIES CV [2]: +
